Results: patent US9073918B2, “Pyrazolo[4,3-b]pyridine-7-amine inhibitors of ALK5” (Takeda Pharmaceutical Company Limited, priority 2010, dated 2015)
Where a name gives a salt, the structure may show the parent alone.

Legend:
[1] = target: T1, TGF-β R1 ALK5 (Homo sapiens, UniProt P36897); assay: In vitro inhibition of ALK5 (LanthaScreen activity assay, TR-FRET); assay type: biochemical
T1 construct: purchased Invitrogen PV5837
T1 sequence (P36897 34-503): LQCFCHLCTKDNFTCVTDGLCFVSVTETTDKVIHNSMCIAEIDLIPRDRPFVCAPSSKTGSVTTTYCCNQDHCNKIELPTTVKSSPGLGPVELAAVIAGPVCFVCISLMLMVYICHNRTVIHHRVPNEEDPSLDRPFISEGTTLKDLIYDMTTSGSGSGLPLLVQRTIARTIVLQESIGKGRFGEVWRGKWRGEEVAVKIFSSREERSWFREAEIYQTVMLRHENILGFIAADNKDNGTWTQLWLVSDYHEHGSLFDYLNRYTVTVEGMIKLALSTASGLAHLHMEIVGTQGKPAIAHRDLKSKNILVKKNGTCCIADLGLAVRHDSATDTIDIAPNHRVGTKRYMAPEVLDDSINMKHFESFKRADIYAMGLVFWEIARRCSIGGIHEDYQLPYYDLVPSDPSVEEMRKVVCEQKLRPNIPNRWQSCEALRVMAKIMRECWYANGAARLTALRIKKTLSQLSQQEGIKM

[2] = target: T2, cellular TGF-β R1 ALK5 (Homo sapiens, UniProt P36897); assay: Cellular inhibition of ALK5 (CellSensor SBE-bla HEK 293T beta-lactamase reporter); assay type: cell-based; conditions: cellular inhibition of ALK5, SBE-bla HEK 293T cells, TGFb-1 stimulated 5 hours; average where measured in multiple experiments
T2 construct: host or cells: CellSensor SBE-bla HEK 293T
T2 sequence (P36897 34-503): T1 sequence (P36897 34-503)
Outline: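 pIC50 derives from non-linear fitting of percent inhibition of the 460/530 nm CCF4-AM emission ratio, relative to DMSO+TGF-β wells. HEK 293T SBE-bla cells received compound (0.5% DMSO) for 1 h, TGFb-1 (100 ng/mL stock) for 5 h at 37 °C, then substrate 2 h at RT.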

In the case of NC(=O)Cn1ncc2nccc(Nc3ccnc(-c4cc(Cl)ccc4F)c3)c21 (as salt: TFA) [Example 44, 2-(7-(2-(5-chloro-2-fluorophenyl)pyridin-4-ylamino)-1H-pyrazolo[4,3-b]pyridin-1-yl)acetamide], the melting point is reported as 131 to 132 °C.
CNC(=O)n1ncc2nccc(Nc3ccnc(-c4cc(Cl)ccc4F)c3)c21 (as salt: TFA) [Example 32, 7-(2-(5-chloro-2-fluorophenyl)pyridin-4-ylamino)-N-methyl-1H-pyrazolo[4,3-b]pyridine-1-carboxamide] gave a melting point of 256 °C.
Work on CCNC(=O)n1ncc2nccc(Nc3cc(C)nc(-c4cc(Cl)ccc4F)c3)c21 (as salt: TFA) [Example 59, 7-(2-(5-chloro-2-fluorophenyl)-6-methylpyridin-4-ylamino)-N-ethyl-1H-pyrazolo[4,3-b]pyridine-1-carboxamide] yielded a melting point of 245 °C.
Work on CN(C)C(=O)Cn1ncc2nccc(Nc3ccnc(-c4cc(Cl)ccc4F)c3)c21 (as salt: TFA) [Example 38, 2-(7-(2-(5-chloro-2-fluorophenyl)pyridin-4-ylamino)-1H-pyrazolo[4,3-b]pyridin-1-yl)-N,N-dimethylacetamide] yielded a melting point of 293 °C.
In the case of CCNC(=O)n1ncc2nccc(Nc3ccnc(-c4cc(Cl)ccc4F)c3)c21 (as salt: TFA) [Example 29, 7-(2-(5-chloro-2-fluorophenyl)pyridin-4-ylamino)-N-ethyl-1H-pyrazolo[4,3-b]pyridine-1-carboxamide], the melting point is reported as 256 °C.
Cc1ccc(F)c(-c2cc(Nc3ccnc4cn(C[C@H](O)CO)nc34)ccn2)n1 (as salt: HCl) [Example 69, (S)-3-(7-(3′-fluoro-6′-methyl-2,2′-bipyridin-4-ylamino)-2H-pyrazolo[4,3-b]pyridin-2-yl)propane-1,2-diol] showed a melting point of 182 to 184 °C.
With Cc1cnc(-c2cc(Cl)ccc2F)cc1Nc1ccnc2cnn(C(=O)NC(C)C)c12 (as salt: TFA) [Example 54, 7-(2-(5-chloro-2-fluorophenyl)-5-methylpyridin-4-ylamino)-N-isopropyl-1H-pyrazolo[4,3-b]pyridine-1-carboxamide] the melting point was 292 °C.
In the case of Cc1ccc(F)c(-c2cc(Nc3ccnc4cn(C[C@@H](C)O)nc34)c(C)cn2)n1 [Example 150, (R)-1-(7-(3′-fluoro-5,6′-dimethyl-2,2′-bipyridin-4-ylamino)-2H-pyrazolo[4,3-b]pyridin-2-yl)propan-2-ol], the IC50 [1] is reported as 7.94 nM and the IC50 [2] is reported as 158 nM.
CCNC(=O)Cn1ncc2nccc(Nc3cc(-c4nc(C)ccc4F)ncc3C)c21 [Example 153, N-ethyl-2-(7-(3′-fluoro-5,6′-dimethyl-2,2′-bipyridin-4-ylamino)-1H-pyrazolo[4,3-b]pyridin-1-yl)acetamide] showed an IC50 [1] of 7.94 nM and an IC50 [2] of 79.4 nM.
Compound NC(=O)Cn1cc2nccc(Nc3ccnc(-c4cc(F)ccc4F)c3)c2n1 [Example 87, 2-(7-(2-(2,5-difluorophenyl)pyridin-4-ylamino)-2H-pyrazolo[4,3-b]pyridin-2-yl)acetamide] has an IC50 [1] of 25.1 nM and an IC50 [2] of 251 nM.
Cc1cnc(-c2cc(F)ccc2F)cc1Nc1ccnc2cnn(C(=O)NC(C)C)c12 [Example 110, 7-(2-(2,5-difluorophenyl)-5-methylpyridin-4-ylamino)-N-isopropyl-1H-pyrazolo[4,3-b]pyridine-1-carboxamide] showed an IC50 [1] of 5.01 nM and an IC50 [2] of 158 nM.
Fc1ccc(Cl)cc1-c1cc(Nc2ccnc3cn(CC4CC4)nc23)ccn1 [Example 37, N-(2-(5-chloro-2-fluorophenyl)pyridin-4-yl)-2-(cyclopropylmethyl)-2H-pyrazolo[4,3-b]pyridin-7-amine] showed an IC50 [1] of 63.1 nM and an IC50 [2] of 398 nM.
Work on Cc1ccc(F)c(-c2cc(Nc3ccnc4cnn(C)c34)c(C)cn2)n1 [Example 124, N-(3′-fluoro-5,6′-dimethyl-2,2′-bipyridin-4-yl)-1-methyl-1H-pyrazolo[4,3-b]pyridin-7-amine] yielded an IC50 [1] of 3.98 nM and an IC50 [2] of 6.31 nM.
For CCn1ncc2nccc(Nc3ccnc(-c4nc(C)ccc4F)c3)c21 [Example 127, 1-ethyl-N-(3′-fluoro-6′-methyl-2,2′-bipyridin-4-yl)-1H-pyrazolo[4,3-b]pyridin-7-amine], the IC50 [1] was 7.94 nM and the IC50 [2] was 31.6 nM.
CNC(=O)n1ncc2nccc(Nc3ccnc(-c4cc(Cl)ccc4F)c3)c21 [Example 32, 7-(2-(5-chloro-2-fluorophenyl)pyridin-4-ylamino)-N-methyl-1H-pyrazolo[4,3-b]pyridine-1-carboxamide] gave an IC50 [1] of 50.1 nM and an IC50 [2] of 50.1 nM.
Cc1ccc(F)c(-c2cc(Nc3ccnc4cnn(C(C)C)c34)ccn2)n1 [Example 67, N-(3′-fluoro-6′-methyl-2,2′-bipyridin-4-yl)-1-isopropyl-1H-pyrazolo[4,3-b]pyridin-7-amine] gave an IC50 [1] of 126 nM and an IC50 [2] of 126 nM.
CN(C)C(=O)n1ncc2nccc(Nc3ccnc(-c4cc(Cl)ccc4F)c3)c21 [Example 39, 7-(2-(5-chloro-2-fluorophenyl)pyridin-4-ylamino)-N,N-dimethyl-1H-pyrazolo[4,3-b]pyridine-1-carboxamide] gave an IC50 [1] of 100 nM and an IC50 [2] of 316 nM.
In the case of Cc1cccc(-c2cc(Nc3ccnc4cn[nH]c34)c(C)cn2)n1 [Example 6, N-(5,6′-dimethyl-2,2′-bipyridin-4-yl)-1H-pyrazolo[4,3-b]pyridin-7-amine], the IC50 [1] is reported as 5.01 nM and the IC50 [2] is reported as 25.1 nM.
With Cc1ccc(F)c(-c2cc(Nc3ccnc4cnn(C5CCS(=O)(=O)C5)c34)c(C)cn2)n1 (stereo not shown) [Example 157, N-[1-(1,1-dioxidotetrahydrothiophen-3-yl)-1H-pyrazolo[4,3-b]pyridin-7-yl]-3′-fluoro-5,6′-dimethyl-2,2′-bipyridin-4-amine] the IC50 [1] was 25.1 nM and the IC50 [2] was 398 nM.
In the case of Cc1cnc(-c2cc(Cl)ccc2F)cc1Nc1ccnc2cn(C(C)(C)C(N)=O)nc12 [Example 55, 2-(7-(2-(5-chloro-2-fluorophenyl)-5-methylpyridin-4-ylamino)-2H-pyrazolo[4,3-b]pyridin-2-yl)-2-methylpropanamide], the IC50 [1] is reported as 79.4 nM and the IC50 [2] is reported as 631 nM.
Compound Cn1cc2nccc(Nc3ccnc(-c4cccc(Cl)c4)c3)c2n1 [Example 48, N-(2-(3-chlorophenyl)pyridin-4-yl)-2-methyl-2H-pyrazolo[4,3-b]pyridin-7-amine] has an IC50 [1] of 200 nM and an IC50 [2] of 200 nM.
Cc1cnc(-c2cc(Cl)ccc2F)cc1Nc1ccnc2cnn(C(=O)NC(C)C)c12 [Example 54, 7-(2-(5-chloro-2-fluorophenyl)-5-methylpyridin-4-ylamino)-N-isopropyl-1H-pyrazolo[4,3-b]pyridine-1-carboxamide] gave an IC50 [1] of 63.1 nM and an IC50 [2] of 100 nM.
Cc1ccc(F)c(-c2cc(Nc3ccnc4cn(C[C@H](C)O)nc34)c(C)cn2)n1 [Example 149, (S)-1-(7-(3′-fluoro-5,6′-dimethyl-2,2′-bipyridin-4-ylamino)-2H-pyrazolo[4,3-b]pyridin-2-yl)propan-2-ol] gave an IC50 [1] of 6.31 nM and an IC50 [2] of 79.4 nM.
Cc1ccc(F)c(-c2cc(Nc3c(F)cnc4cnn(C[C@H](C)O)c34)ccn2)n1 [Example 100B, (S)-1-(6-fluoro-7-(3′-fluoro-6′-methyl-2,2′-bipyridin-4-ylamino)-1H-pyrazolo[4,3-b]pyridin-1-yl)propan-2-ol] showed an IC50 [1] of 63.1 nM and an IC50 [2] of 251 nM.
Compound Cc1ccc(F)c(-c2cc(Nc3c(F)cnc4cn(C)nc34)c(C)cn2)n1 [Example 131, 6-fluoro-N-(3′-fluoro-5,6′-dimethyl-2,2′-bipyridin-4-yl)-2-methyl-2H-pyrazolo[4,3-b]pyridin-7-amine] has an IC50 [1] of 3.16 nM and an IC50 [2] of 10 nM.
